In data set [1] the test system is oxotremorine. As to conditions: cited from earlier work; for effect on oxotremorine-induced temperature decrease / hypothermic response / hypothermic response: mice, background statement.
For the next data set, the system named is yohimbine hydrochloride. Nature of the data set: animal or person. The settings on record: for ED50: Mus musculus, 2 h, read-out: ED50, yohimbine potentiation (causes 50% of the mice to die); for YO (Yohimbine test): TABLE V. How it is done: (§1) Ten male CF mice, 18-22 g., were injected with the anti-depressant and 30 minutes later with 30 […] hydrochloride (YCl) in saline solution. After two hours, the LD50 were determined.

Data set [2] concerns oxotremorine. Nature of the data set: animal or person. The settings on record: for ED50: Mus musculus, ip, 0.5 h, read-out: ED50, oxotremorine hypothermia antagonism (temperature at least 4° C. higher than control mice); for Oxo (Oxotremorine test): TABLE V. Type of data set: in vivo, mice (male, Strain CF=Carworth Farms). Here is the method:
Hypothermic tests with oxotremorine: [1-(4-pyrrolidino-2-butynyl)-2-pyrrolidinone].
The present compounds were tested as follows. […] The lowering of the body temperature was measured rectally with an electronic thermometer, before and 30 minutes after drug administration. After the drug administration the mice were kept at 19° C. in cages. A 4° difference between the control mice (oxotremorine alone) and the treated mice (oxotremorine and test compound) was used to indicate the antagonistic action of the test compound.

For data set [3], the system named is apomorphine hydrochloride. Nature of the data set: animal or person. As to conditions: Mus musculus, ip, 0.5 h, read-out: ED50, potentiation of apomorphine gnawing.
A short description of a further data set: LD50 values in mice. The settings on record: mouse, in vivo.
Data set [4] concerns apomorphine hydrochloride. The settings on record: TABLE V.
The next data set concerns strychnine sulfate. Nature of the data set: animal or person. Type of data set: in vivo, mice. How it is done: The test consists in orally administering into groups of 6 mice the test compound, and 30 minutes later 3 mg./kg. strychnine sulfate intraperitoneally. The survivors after 4 hours reflect the activity of the compound as a muscle relaxant and antispasmodic.
Data set [5] is described as follows: Dish test: mice remaining in the dish for more than 3 minutes (tranquilization). The format is in vivo. The settings on record: Mus musculus, ip. Here is the method: Dish test: Mice in Petri dishes (10 cm. diameter, 5 cm. high, partially embedded in wood shavings), climb out in a very short time, when not treated. Mice remaining in the dish for more than 3 minutes indicates tranquilization.

Data set [6] in a line: Chimney test: ability of mice to back up and out of a vertical glass cylinder within 30 seconds. Type of data set: in vivo. As to conditions: Mus musculus, ip. The text has this: The test determines the ability of mice to back up and out of a vertical glass cylinder within 30 seconds. At the effective dosage, 50% of the mice failed doing it.
The next data set relates to nicotine salicylate. In words: animal or person. The format is in vivo, mice. The settings on record: for ED50: Mus musculus, ip. How it is done:
Nicotine antagonism test: Mice in a group of 6 are injected with the test compound, 8-chloro-1-[(dimethylamino)methyl]-6-phenyl-4H-s-triazolo[4,3-a][1,4]benzodiazepine. Thirty minutes later the mice, including control (untreated) mice, are injected with nicotine salicylate (2 mg./kg.). The control mice show overstimulation, i.e., (1) running convulsions (2) tonic extensor fits; followed by (3) death.

The nature of data set [7]: Pedestal test: tranquilized mice stay on the pedestal for more than 1 minute. Type of data set: in vivo. As to conditions: Mus musculus, ip. How it is done:
Pedestal Test: The untreated mouse leaves the pedestal in less than a minute to climb back to the floor of the standard mouse box. Tranquilized mice will stay on the pedestal for more than 1 minute. The ED50 (intraperitoneal administration) was 0.8 mg./kg.

A further data set can be described thus: in vivo. As to conditions: mouse, in vivo, ip. Here is the method: as §1
The mark [8] stands for this setting: mice, route not given, TABLE IV.

The structures appear in SMILES notation. Entries after “also recorded” stand apart in the source; their conditions may differ. Where a name gives a salt, the structure may show the parent alone. Read-outs that look alike come from different tables or passages of the source.

On to `CNCCCN1c2ccccc2CCc2ccccc21` [desipramine], for which, in the data set on oxotremorine [1], the “effect on oxotremorine-induced temperature decrease / hypothermic response” value is “antagonized”.

On to `CN(C)CCCN1c2ccccc2CCc2ccccc21` [Imipramine, reference compound], for which the ED50 in the data set with yohimbine hydrochloride came to 4.4 mg/kg; in the data set with oxotremorine [2] it was 5.3 mg/kg; in [3] it was 17.7 mg/kg.

As to `CN(C)CCC=C1c2ccccc2COc2ccccc21` [Doxepine, reference compound], in the data set “LD50 values in mice” (setting [8]), the LD50 came out at 126 mg/kg. In addition, the ED50 with yohimbine hydrochloride stood at 17.7 mg/kg; in the data set with oxotremorine [2], 14.9 mg/kg; in data set [3], 17.7 mg/kg. Further, the “effect on oxotremorine-induced temperature decrease / hypothermic response” value in the data set with oxotremorine [1] is on record as “antagonized”.

Consider `NCc1nnc2n1-c1ccc(Cl)cc1C(c1ccccc1)=NC2` [8-Chloro-1-(aminomethyl)-6-phenyl-4H-s-triazolo[4,3-a][1,4]benzodiazepine], for which the LD50 in “LD50 values in mice” (TABLE V) was > 100 mg/kg. In addition, in the data set on yohimbine hydrochloride, the “YO (Yohimbine test)” value was 35.4. The “Oxo (Oxotremorine test)” value in the data set with oxotremorine [2] is 29.7. In addition, the “Ap (Apomorphine test)” value in [4] amounted to 2.6.

For `O=C1C[C@@H]2OCC=C3CN4CC[C@]56c7ccccc7N1[C@H]5[C@H]2[C@H]3C[C@H]46` [strychnine sulfate, reference compound], the “lethality of strychnine sulfate in control mice” value in the data set on strychnine sulfate (3 mg./kg. intraperitoneally) was “routinely fatal to all the control mice”.

Turning to `CN1[C@@H]2CC[C@H]1C[C@@H](OC(=O)C(CO)c1ccccc1)C2` (stereo partly shown) [atropine], the “effect on oxotremorine-induced temperature decrease / hypothermic response” value in the data set on oxotremorine [1] was “blocked”.

For the compound `O=C1CCCN1CC#CCN1CCCC1` [Oxotremorine, 1-(4-pyrrolidino-2-butynyl)-2-pyrrolidinone], the “decrease of body temperature” value with oxotremorine [1] (0.6 mg./kg. oxotremorine, mouse kept at room temperature) is “about 13 ° F”. In addition, in the data set with oxotremorine [1], the hypothermic response result is listed as “produces hypothermic responses in mice; also recorded: very pronounced hypothermia”.

With `CCN(CC)Cc1nnc2n1-c1ccc(Cl)cc1C(c1ccccc1Cl)=NC2` [8-Chloro-1-[(diethylamino)methyl]-6-(o-chlorophenyl)-4H-s-triazolo[4,3-a][1,4]benzodiazepine], the ED50 amounted to 0.11 mg/kg in [5] (read-out: ED50 D), 0.63 mg/kg in [6] (read-out: ED50 Ch), 0.08 mg/kg in the data set with nicotine salicylate (read-out: ED50 Ni) and 0.4 mg/kg in data set [7] (read-out: ED50 P).

For the compound `CN(C)Cc1nnc2n1-c1ccc(Cl)cc1C(c1ccccc1Cl)=NC2` [8-Chloro-1-[(dimethylamino)methyl]-6-(o-chlorophenyl)-4H-s-triazolo[4,3-a][1,4]benzodiazepine], the ED50 is 0.36 mg/kg in data set [5] (read-out: ED50 D), 0.2 mg/kg in data set [6] (read-out: ED50 Ch), 0.63 mg/kg with nicotine salicylate (read-out: ED50 Ni) and 0.36 mg/kg in [7] (read-out: ED50 P). The LD50 in “LD50 values in mice” (TABLE V) was > 100 mg/kg. Also, the “YO (Yohimbine test)” value in the data set with yohimbine hydrochloride is on record as > 30. Moreover, the “Oxo (Oxotremorine test)” value in the data set with oxotremorine [2] is > 30. The “Ap (Apomorphine test)” value in data set [4] turned out to be 17.8.

With `COC(=O)[C@@H]1[C@H]2C[C@H]3c4[nH]c5ccccc5c4CCN3C[C@@H]2CC[C@@H]1O` [yohimbine hydrochloride], in the data set with yohimbine hydrochloride (30 mg./kg. (30 mg.), mice), the “lethality of yohimbine hydrochloride alone” value is “non-lethal”. Further, in the data set “in vivo”, the LD50 worked out at 45 mg/kg.

In the case of `CN(C)Cc1nnc2n1-c1ccc(Cl)cc1C(c1ccccc1)=NC2` [8-Chloro-1-[(dimethylamino)methyl]-6-phenyl-4H-s-triazolo[4,3-a][1,4]benzodiazepine], the ED50 in data set [5] (read-out: ED50, dish test) worked out at 0.28 mg/kg; in data set [6] (read-out: effective intraperitoneal dosage for 50% of mice (ED50), chimney test) it was 2.3 mg/kg; in the data set with nicotine salicylate (read-out: dosage protecting 50% of the animals against death (nicotine antagonism)), 0.11 mg/kg; with strychnine sulfate (Mus musculus, po, 4 h, read-out: effective dosage ED50, antagonism to strychnine) it was 50 mg/kg; in the data set with yohimbine hydrochloride, 12.5 mg/kg; with oxotremorine [2], 5.3 mg/kg. Besides, the ED50 worked out at 0.8 mg/kg in [7] (read-out: ED50, pedestal test) and 5.3 mg/kg in data set [3]. In the data set “LD50 values in mice” (setting [8]), the LD50 came out at 476 mg/kg.

Take `CCN(CC)Cc1nnc2n1-c1ccc(Cl)cc1C(c1ccccc1)=NC2` [8-Chloro-1-[(diethylamino)methyl]-6-phenyl-4H-s-triazolo[4,3-a][1,4]benzodiazepine]: the 50% lethal dose (LD50) in the data set “LD50 values in mice” (setting [8]) was > 100 mg/kg. Moreover, the ED50 in the data set with yohimbine hydrochloride amounted to 42 mg/kg; in the data set with oxotremorine [2] (mice, oxotremorine 1 mg. i.p., 30 minutes, second TABLE I) it was 50 mg/kg; in [3], 14.9 mg/kg.

In the case of `CN1CCc2cccc3c2[C@H]1Cc1ccc(O)c(O)c1-3` [apomorphine], in the data set on oxotremorine [1], the hypothermic response entry is “produces hypothermic responses in mice”.

For the compound `CN1CCC[C@H]1c1cccnc1` [nicotine salicylate, reference compound], the “effect of nicotine salicylate in control mice” value in the data set on nicotine salicylate (2 mg./kg., injected) is “overstimulation”.

On to `COc1cc2c(cc1OC)C1CC(=O)C(CC(C)C)CN1CC2` (stereo not shown) [tetrabenazine], for which, in the data set with oxotremorine [1], the hypothermic response entry is “produces hypothermic responses in mice”.

With `CN(C)Cc1nnc2n1-c1ccccc1C(c1ccccc1Cl)=NC2` [1-[(dimethylamino)methyl]-6-(o-chlorophenyl)-4H-s-triazolo-[4,3-a][1,4]benzodiazepine], the ED50 in data set [5] (read-out: ED50 D) amounted to 0.8 mg/kg; in [6] (read-out: ED50 Ch), 0.35 mg/kg; in the data set with nicotine salicylate (read-out: ED50 Ni), 0.15 mg/kg; in data set [7] (read-out: ED50 P) it was 22 mg/kg. Besides, the LD50 in “LD50 values in mice” (TABLE V) is > 100 mg/kg. Moreover, the “YO (Yohimbine test)” value in the data set with yohimbine hydrochloride was > 30. Moreover, in the data set on oxotremorine [2], the “Oxo (Oxotremorine test)” value was > 30. Besides, the “Ap (Apomorphine test)” value in [4] is listed as > 30.

(Values after US3947466A, “Intermediates and process for the production of certain triazolobenzodiazepines” (priority 1974, dated 1976).)
